Laboratory results taken from US20080234266A1, “Squaric Acid Derivatives II” (priority 2005, published 2008).

Target: T1, CHK1 kinase (Homo sapiens, UniProt O14757)
T1 construct: glutathione S-transferase (GST); made in house; host or cells: Sf21 insect cells (S. frugiperda), baculovirus
T1 sequence (O14757 1-476): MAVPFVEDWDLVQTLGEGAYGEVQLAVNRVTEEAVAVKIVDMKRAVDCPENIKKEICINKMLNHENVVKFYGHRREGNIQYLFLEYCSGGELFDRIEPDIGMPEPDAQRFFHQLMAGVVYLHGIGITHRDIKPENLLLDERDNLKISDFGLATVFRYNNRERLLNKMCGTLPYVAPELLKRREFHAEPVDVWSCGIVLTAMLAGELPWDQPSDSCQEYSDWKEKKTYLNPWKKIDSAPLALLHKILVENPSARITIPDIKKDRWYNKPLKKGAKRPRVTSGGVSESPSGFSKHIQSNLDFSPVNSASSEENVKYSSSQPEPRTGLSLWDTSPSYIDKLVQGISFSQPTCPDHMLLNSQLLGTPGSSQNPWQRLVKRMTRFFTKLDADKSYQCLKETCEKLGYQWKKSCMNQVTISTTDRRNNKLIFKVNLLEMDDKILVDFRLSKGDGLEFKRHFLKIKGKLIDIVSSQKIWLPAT
Experiment: Flashplate method (CHK1), measurement of the CHK1 kinase activity
Format: biochemical
Settings: class symbols; 'Affinity to receptors'
Procedure, shortened: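 GST-tagged CHK1 expressed in Sf21 insect cells, incubated at 30 °C with biotinylated CHKtide (0.15 μg per well) and γ33P-ATP in pH 7.5 buffer (EGTA, Mg acetate, mercaptoethanol, 0.1% BSA). Stopped with EDTA, captured on streptavidin Flashplates and counted by scintillation. IC50 set against uninhibited reaction and 0.1 μM staurosporine as zero.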

IC50	SMILES
> 1000 nM	Cc1nc2cc(Nc3c(NCc4cccc(O)c4)c(=O)c3=O)ccc2s1 [Compound A98, 3-(3-hydroxybenzylamino)-4-(2-methylbenzo-thiazol-5-ylamino)cyclobut-3-ene-1,2-dione]
> 1000 nM	O=C(O)CC(Nc1c(Nc2ccc3[nH]cnc3c2)c(=O)c1=O)c1cccc(O)c1 (stereo not shown) [Compound A99, 3-[2-(1H-benzimidazol-5-ylamino)-3,4-dioxo-cyclobut-1-enylamino]-3-(3-hydroxyphenyl)-propionic acid]
> 1000 nM	CCOC(=O)CC(Nc1c(Nc2ccc3[nH]cnc3c2)c(=O)c1=O)c1cccc(O)c1 (stereo not shown) [Compound A100, ethyl 3-[2-(1H-benzimidazol-5-ylamino)-3,4-dioxocyclobut-1-enylamino]-3-(3-hydroxy-phenyl)propionate]
< 1000 nM	COC(=O)CC(Nc1c(Nc2ccc3[nH]cnc3c2)c(=O)c1=O)c1cccc(O)c1 (stereo not shown) [Compound A101, methyl 3-[2-(1H-benzimidazol-5-ylamino)-3,4-dioxocyclobut-1-enylamino]-3-(3-hydroxy-phenyl)propionate]
> 1000 nM	O=c1c(NCc2ccc3[nH]cc(-c4ccncc4)c3c2)c(Nc2ccc3[nH]cnc3c2)c1=O [Compound A102, 3-(1H-benzimidazol-5-ylamino)-4-[(3-pyridin-4-yl-1H-indol-5-ylmethyl)amino]cyclobut-3-ene-1,2-dione]
> 1000 nM	O=c1c(NCc2cccc(O)c2F)c(Nc2ccc3[nH]cnc3c2)c1=O [Compound A103, 3-(1H-benzimidazol-5-ylamino)-4-(2-fluoro-3-hydroxybenzylamino)cyclobut-3-ene-1,2-dione]
> 1000 nM	CCOc1cccc(CNc2c(Nc3ccc4[nH]cnc4c3)c(=O)c2=O)c1 [Compound A104, 3-(1H-benzimidazol-5-ylamino)-4-(3-ethoxy-benzylamino)cyclobut-3-ene-1,2-dione]
> 1000 nM	O=C(CC(Nc1c(Nc2ccc3[nH]cnc3c2)c(=O)c1=O)c1cccc(O)c1)N1CCOCC1 (stereo not shown) [Compound A105, 3-(1H-benzimidazol-5-ylamino)-4-[1-(3-hydroxyphenyl)-3-morpholin-4-yl-3-oxo-propylamino]cyclobut-3-ene-1,2-dione]
> 1000 nM	COCCOc1cccc(CNc2c(Nc3ccc4[nH]cnc4c3)c(=O)c2=O)c1 [Compound A106, 3-(1H-benzimidazol-5-ylamino)-4-[3-(2-methoxyethoxy)benzylamino]cyclobut-3-ene-1,2-dione]
> 1000 nM	O=c1c(NCc2cccc(OCCO)c2)c(Nc2ccc3[nH]cnc3c2)c1=O [Compound A107, 3-(1H-benzimidazol-5-ylamino)-4-[3-(2-hydroxyethoxy)benzylamino]cyclobut-3-ene-1,2-dione]
> 1000 nM	CN(C)CCOc1cccc(CNc2c(Nc3ccc4[nH]cnc4c3)c(=O)c2=O)c1 [Compound A108, 3-(1H-benzimidazol-5-ylamino)-4-[3-(2-di-methylaminoethoxy)benzylamino]cyclobut-3-ene-1,2-dione]
> 1000 nM	CC(=O)NCCOc1cccc(CNc2c(Nc3ccc4[nH]cnc4c3)c(=O)c2=O)c1 [Compound A109, 3-(1H-benzimidazol-5-ylamino)-4-[3-(2-acetamidoethoxy)benzylamino]cyclobut-3-ene-1,2-dione]
> 1000 nM	CS(=O)(=O)NCCOc1cccc(CNc2c(Nc3ccc4[nH]cnc4c3)c(=O)c2=O)c1 [Compound A110, 3-(1H-benzimidazol-5-ylamino)-4-[3-(2-methylsulfonylaminoethoxy)benzylamino]-cyclobut-3-ene-1,2-dione]
> 1000 nM	CCCCc1c(Nc2c(NCc3cccc(O)c3)c(=O)c2=O)ccc2[nH]cnc12 [Compound A111, 3-(4-butyl-1H-benzimidazol-5-ylamino)-4-(3-hydroxybenzylamino)cyclobut-3-ene-1,2-dione]
< 1000 nM	O=C(CC(Nc1c(Nc2ccc3[nH]cnc3c2)c(=O)c1=O)c1cccc(O)c1)N1CCNCC1 (stereo not shown) [Compound A112, 3-(1H-benzimidazol-5-ylamino)-4-[1-(3-hydroxyphenyl)-3-oxo-3-piperazin-1-ylpropyl-amino]cyclobut-3-ene-1,2-dione]
> 1000 nM	CN(C)CCNC(=O)CC(Nc1c(Nc2ccc3[nH]cnc3c2)c(=O)c1=O)c1cccc(O)c1 (stereo not shown) [Compound A113, 3-[2-(1H-benzimidazol-5-ylamino)-3,4-dioxo-cyclobut-1-enylamino]-N-(2-dimethylamino-ethyl)-3-(3-hydroxyphenyl)propionamide]
> 1000 nM	CC[C@@H](Nc1c(Nc2ccc3[nH]cnc3c2)c(=O)c1=O)c1cccc(OC)c1 [Compound A114, 3-(1H-benzimidazol-5-ylamino)-4-[(R)-1-(3-methoxyphenyl)propylamino]cyclobut-3-ene-1,2-dione]

IC50	SMILES
> 1000 nM	CC[C@H](Nc1c(Nc2ccc3[nH]cnc3c2)c(=O)c1=O)c1cccc(OC)c1 [Compound A115, 3-(1H-benzimidazol-5-ylamino)-4-[(S)-1-(3-methoxyphenyl)propylamino]cyclobut-3-ene-1,2-dione]
< 1000 nM	COc1cccc(CNc2c(Nc3ccc4[nH]cnc4c3)c(=O)c2=O)c1 [Compound A116, 3-(1H-benzimidazol-5-ylamino)-4-(3-methoxybenzylamino)cyclobut-3-ene-1,2-dione]
> 1000 nM	COCCNC(=O)CC(Nc1c(Nc2ccc3[nH]cnc3c2)c(=O)c1=O)c1cccc(O)c1 (stereo not shown) [Compound A117, 3-[2-(1H-benzimidazol-5-ylamino)-3,4-dioxo-cyclobut-1-enylamino]-3-(3-hydroxyphenyl)-N-(2-methoxyethyl)propionamide]
< 1000 nM	O=c1c(NCc2cccc(O)c2)c(Nc2cc(Cl)c3[nH]cnc3c2)c1=O [Compound A118, 3-(7-chloro-1H-benzimidazol-5-ylamino)-4-(3-hydroxybenzylamino)cyclobut-3-ene-1,2-dione]
> 1000 nM	O=c1c(NCc2cccc(O)c2)c(Nc2ccc3scnc3c2)c1=O [Compound A119, 3-(benzothiazol-5-ylamino)-4-(3-hydroxy-benzylamino)cyclobut-3-ene-1,2-dione]
< 1000 nM	CC[C@@H](Nc1c(Nc2ccc3[nH]cnc3c2)c(=O)c1=O)c1cccc(O)c1 [Compound A120, 3-(1H-benzimidazol-5-ylamino)-4-[(R)-1-(3-hydroxyphenyl)propylamino]cyclobut-3-ene-1,2-dione]
> 1000 nM	COc1cccc(CNc2c(Nc3ccc4ncsc4c3)c(=O)c2=O)c1 [Compound A122, 3-(benzothiazol-6-ylamino)-4-(3-methoxy-benzylamino)cyclobut-3-ene-1,2-dione]
> 1000 nM	O=c1c(NCc2ccc3c(c2)OCO3)c(Nc2ccc3[nH]cnc3c2)c1=O [Compound A123, 3-[(benzo[1,3]dioxol-5-ylmethyl)amino]-4-(1H-benzimidazol-5-ylamino)cyclobut-3-ene-1,2-dione]
> 1000 nM	CCN(CC)c1c(Nc2c(NCc3cccc(O)c3)c(=O)c2=O)cc(C(F)(F)F)c2[nH]cnc12 [Compound A124, 3-(4-diethylamino-7-trifluoromethyl-1H-benzimidazol-5-ylamino)-4-(3-hydroxy-benzylamino)cyclobut-3-ene-1,2-dione]
> 1000 nM	O=c1c(NCc2cccc(B(O)O)c2)c(Nc2ccc3[nH]cnc3c2)c1=O [Compound A125, 3-{[2-(1H-benzimidazol-5-ylamino)-3,4-dioxo-cyclobut-1-enylamino]methyl}phenylboronic acid]
> 1000 nM	Cc1cc2[nH]cnc2cc1Nc1c(NCc2cccc(O)c2)c(=O)c1=O [Compound A126, 3-(3-hydroxybenzylamino)-4-(6-methyl-1H-benzimidazol-5-ylamino)cyclobut-3-ene-1,2-dione]
> 1000 nM	CC(=O)c1cccc(CNc2c(Nc3ccc4[nH]cnc4c3)c(=O)c2=O)c1 [Compound A127, 3-(1H-benzimidazol-5-ylamino)-4-(3-acetyl-benzylamino)cyclobut-3-ene-1,2-dione]
> 1000 nM	COC(=O)Nc1cccc(CNc2c(Nc3ccc4[nH]cnc4c3)c(=O)c2=O)c1 [Compound A128, 3-(1H-benzimidazol-5-ylamino)-4-(3-methoxycarbonylaminobenzylamino)-cyclobut-3-ene-1,2-dione]
> 1000 nM	O=c1c(NCc2cccc(O)c2)c(Nc2cc3nc[nH]c3cc2F)c1=O [Compound A129, 3-(6-fluoro-1H-benzimidazol-5-ylamino)-4-(3-hydroxybenzylamino)cyclobut-3-ene-1,2-dione]
> 1000 nM	O=C(O)c1cccc(CNc2c(Nc3ccc4[nH]cnc4c3)c(=O)c2=O)c1 [Compound A130, 3-(1H-benzimidazol-5-ylamino)-4-(3-carboxy-benzylamino)cyclobut-3-ene-1,2-dione]
> 1000 nM	CS(=O)(=O)c1cccc(CNc2c(Nc3ccc4[nH]cnc4c3)c(=O)c2=O)c1 [Compound A131, 3-(1H-benzimidazol-5-ylamino)-4-(3-methyl-sulfonylbenzylamino)cyclobut-3-ene-1,2-dione]
> 1000 nM	CS(=O)(=O)Oc1cccc(CNc2c(Nc3ccc4[nH]cnc4c3)c(=O)c2=O)c1 [Compound A132, 3-(1H-benzimidazol-5-ylamino)-4-(3-methyl-sulfonyloxybenzylamino)cyclobut-3-ene-1,2-dione]
